This is an account of results in patent publication US10316049B2, “Tank-binding kinase inhibitor compounds” (Gilead Sciences, Inc., priority 2015, dated 2019).

One test addresses T1, IKKε (Homo sapiens, UniProt Q14164).
T1 construct: TBK1 and IKKε were expressed and purified as full length recombinant proteins; made in house
T1 sequence (Q14164 1-716): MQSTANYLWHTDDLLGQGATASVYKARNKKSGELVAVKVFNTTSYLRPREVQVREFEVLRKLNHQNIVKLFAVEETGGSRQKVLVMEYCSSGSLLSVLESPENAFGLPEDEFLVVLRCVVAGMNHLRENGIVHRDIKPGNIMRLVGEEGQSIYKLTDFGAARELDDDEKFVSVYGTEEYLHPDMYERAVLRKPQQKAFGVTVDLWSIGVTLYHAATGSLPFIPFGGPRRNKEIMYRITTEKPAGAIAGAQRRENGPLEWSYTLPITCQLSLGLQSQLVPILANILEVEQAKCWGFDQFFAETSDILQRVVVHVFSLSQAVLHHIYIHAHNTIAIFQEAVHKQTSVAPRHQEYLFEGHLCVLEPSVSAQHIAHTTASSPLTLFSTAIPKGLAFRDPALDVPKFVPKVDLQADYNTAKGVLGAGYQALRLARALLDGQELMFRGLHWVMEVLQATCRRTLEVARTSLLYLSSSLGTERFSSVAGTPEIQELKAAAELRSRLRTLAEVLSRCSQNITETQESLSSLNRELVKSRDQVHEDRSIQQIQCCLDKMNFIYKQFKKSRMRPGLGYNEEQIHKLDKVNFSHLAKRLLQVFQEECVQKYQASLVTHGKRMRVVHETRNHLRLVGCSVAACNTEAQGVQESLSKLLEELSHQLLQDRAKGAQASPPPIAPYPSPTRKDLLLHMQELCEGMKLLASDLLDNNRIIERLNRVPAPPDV
Kind of test: TR-FRET enzymatic activity assay, IKKε. Also: full length recombinant IKKε at 0.3 nM. Format: biochemical. The note with it: read-out: IKKϵ IC50. In outline: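 IC50 values are geometric means of at least four determinations, fitted to a four-parameter curve after normalising to 1 μM staurosporine and DMSO. Signal: Eu-cryptate anti-phospho antibody plus 125 nM streptavidin-XL665 on a biotinylated peptide. Full-length recombinant enzyme reacted 240 min, 25 °C, then EDTA-quenched.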

The next test addresses T2, TBK1 (Homo sapiens, UniProt Q9UHD2).
T2 construct: TBK1 and IKKε were expressed and purified as full length recombinant proteins; made in house
T2 sequence (Q9UHD2 1-729): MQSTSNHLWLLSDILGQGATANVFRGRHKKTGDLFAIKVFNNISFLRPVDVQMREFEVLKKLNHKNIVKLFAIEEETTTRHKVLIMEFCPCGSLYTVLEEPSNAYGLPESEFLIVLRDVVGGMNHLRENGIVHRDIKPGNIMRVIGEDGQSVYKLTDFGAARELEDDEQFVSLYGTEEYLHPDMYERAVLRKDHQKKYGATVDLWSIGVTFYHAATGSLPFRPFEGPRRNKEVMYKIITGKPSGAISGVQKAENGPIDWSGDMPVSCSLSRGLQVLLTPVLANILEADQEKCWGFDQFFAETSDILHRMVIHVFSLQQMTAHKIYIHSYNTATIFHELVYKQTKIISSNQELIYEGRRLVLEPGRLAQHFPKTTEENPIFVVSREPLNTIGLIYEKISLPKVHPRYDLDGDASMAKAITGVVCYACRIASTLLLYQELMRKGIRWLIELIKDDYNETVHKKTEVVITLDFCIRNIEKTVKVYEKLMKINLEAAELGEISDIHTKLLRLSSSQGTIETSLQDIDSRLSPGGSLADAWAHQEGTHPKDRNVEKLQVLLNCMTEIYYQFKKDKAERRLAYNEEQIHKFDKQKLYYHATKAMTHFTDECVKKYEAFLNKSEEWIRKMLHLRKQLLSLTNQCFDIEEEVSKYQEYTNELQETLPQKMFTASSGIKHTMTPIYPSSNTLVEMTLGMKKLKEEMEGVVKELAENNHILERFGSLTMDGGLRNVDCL
Kind of test: TR-FRET enzymatic activity assay, TBK1. Also: full length recombinant TBK1 at 2.5 nM. It counts as biochemical. In outline: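 TR-FRET detected phosphorylation of a biotinylated serine/threonine peptide using 125 nM streptavidin XL665 plus europium-labelled anti-phospho antibody. Reactions with full-length recombinant kinase ran 240 min at 25 °C before EDTA quench. Values are geometric-mean IC50s (n ≥ 4) from four-parameter dose-response fits against staurosporine and DMSO controls.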
(Time-resolved FRET reads energy transfer from a long-lived donor to a nearby acceptor.)

pIC50: −log10 of the molar value. Some results are limits rather than exact numbers.

For orientation: pIC50 means the negative decadic logarithm of the IC50, by convention in mol/L. `N#Cc1cc(-c2ccnc(NC(=O)C3CC3C(F)(F)F)c2)ccc1O[C@H]1CCN(C(=O)CO)C[C@H]1F` (stereo partly drawn) [Example 66, N-(4-(3-Cyano-4-(((3R,4S)-3-fluoro-1-(2-hydroxyacetyl)piperidin-4-yl)oxy)phenyl)pyridin-2-yl)-2-(trifluoromethyl)cyclopropane-1-carboxamide]: the pIC50 at IKKε is 6.97; on TBK1 it was 7.55.
On to `C[C@@H]1C[C@H]1C(=O)Nc1cc(-c2ccc(O[C@H]3CCN(C(=O)CO)C[C@H]3F)c(C#N)c2)ccn1` [Example 72, (1R,2R)—N-(4-(3-cyano-4-(((3R,4S)-3-fluoro-1-(2-hydroxyacetyl)piperidin-4-yl)oxy)phenyl)pyridin-2-yl)-2-methylcyclopropane-1-carboxamide], for which the pIC50 at IKKε was 7.36; at TBK1 it was 7.78.
For `N#Cc1cc(-c2ccnc(NC(=O)C3(O)CC3)c2)ccc1OC1CCOCC1` [Example 36, N-(4-(3-cyano-4-((tetrahydro-2H-pyran-4-yl)oxy)phenyl)pyridin-2-yl)-1-hydroxycyclopropanecarboxamide], in that order: under 6.00 and under 6.00.
Regarding `N#Cc1cc(-c2ccnc(NC(=O)[C@H]3C[C@@H]3F)c2)ccc1O[C@H]1CCN(C(=O)CO)C[C@H]1F` [Example 60, (1R,2S)—N-(4-(3-cyano-4-(((3R,4S)-3-fluoro-1-(2-hydroxyacetyl)piperidin-4-yl)oxy)phenyl)pyridin-2-yl)-2-fluorocyclopropanecarboxamide], the pIC50 on IKKε is 7.33; on TBK1, 7.80.
Regarding `N#Cc1cc(-c2ccnc(NC(=O)[C@@H]3C[C@H]3C=O)c2)ccc1OC1CCOCC1` (relative stereo) [Example 40, (1,2-trans)-N-(4-(3-cyano-4-((tetrahydro-2H-pyran-4-yl)oxy)phenyl)pyridin-2-yl)-2-formylcyclopropane-1-carboxamide], the pIC50 on IKKε was 7.19; on TBK1, 7.21.
For the compound `N#Cc1cc(-c2ccnc(NC(=O)C3(F)CC3)c2)ccc1O[C@H]1CCN(C(=O)CO)C[C@H]1F` [Example 78, N-(4-(3-Cyano-4-(((3R,4S)-3-fluoro-1-(2-hydroxyacetyl)piperidin-4-yl)oxy)phenyl)pyridin-2-yl)-1-fluorocyclopropane-1-carboxamide], the pIC50 on IKKε was 6.53; on TBK1, 6.40.
Consider `N#Cc1cc(-c2ccnc(NC(=O)[C@H]3C[C@@H]3C(F)F)c2)ccc1OC1CCOCC1` (relative stereo) [Example 101, (1,2-trans)-N-(4-(3-cyano-4-((tetrahydro-2H-pyran-4-yl)oxy)phenyl)pyridin-2-yl)-2-(difluoromethyl)cyclopropane-1-carboxamide], for which the negative logarithm of the IC50 (pIC50) on IKKε is under 6.00; against TBK1, 7.01.
The matching figures for `N#Cc1cc(-c2ccnc(NC(=O)[C@H]3C[C@@H]3c3cccc(F)c3)c2)ccc1OC1CCOCC1` (relative stereo) [Example 119, (1,2-Trans)-N-(4-(3-cyano-4-((tetrahydro-2H-pyran-4-yl)oxy)phenyl)pyridin-2-yl)-2-(3-fluorophenyl)cyclopropane-1-carboxamide]: under 6.00 and 7.00.
On to `N#Cc1cc(-c2ccnc(NC(=O)C3CC3)c2)ccc1CC1CCOCC1` [Example 98, N-(4-(3-cyano-4-((tetrahydro-2H-pyran-4-yl)methyl)phenyl)pyridin-2-yl)cyclopropanecarboxamide], for which the pIC50 at IKKε and on TBK1 was under 6.00 each time.
With `Cc1n[nH]c(C(=O)N2CC[C@H](Oc3ccc(-c4ccnc(NC(=O)C5CC5C)c4)cc3C#N)[C@H](F)C2)n1` (stereo partly drawn) [Example 75, N-(4-(3-Cyano-4-(((3R,4S)-3-fluoro-1-(3-methyl-1H-1,2,4-triazole-5-carbonyl)piperidin-4-yl)oxy)phenyl)pyridin-2-yl)-2-methylcyclopropane-1-carboxamide], the pIC50 was 8.15 on IKKε and 8.21 on TBK1.
As to `CCOC(=O)[C@@H]1C[C@H]1C(=O)Nc1cc(-c2ccc(OC3CCOCC3)c(C#N)c2)ncn1` (relative stereo) [Example 35, (trans)-ethyl 2-((6-(3-cyano-4-((tetrahydro-2H-pyran-4-yl)oxy)phenyl)pyrimidin-4-yl)carbamoyl)cyclopropanecarboxylate], the pIC50 on IKKε was under 6.00; at TBK1 it was 6.31.
For the compound `C[C@@H]1CCCN1c1ccc(-c2ccnc(NC(=O)C3CC3)c2)cc1C#N` [Example 96, (R)—N-(4-(3-cyano-4-(2-methylpyrrolidin-1-yl)phenyl)pyridin-2-yl)cyclopropanecarboxamide], the values for the pIC50 on IKKε and on TBK1 were 6.64 and 7.48, respectively.
Consider `COC(=O)[C@@H]1C[C@H]1C(=O)Nc1cc(-c2ccc(O[C@H]3CCN(C(=O)CO)C[C@H]3F)c(C#N)c2)ccn1` (relative stereo) [Example 83, Methyl (1,2-trans)-2-((4-(3-cyano-4-(((3R,4S)-3-fluoro-1-(2-hydroxyacetyl)piperidin-4-yl)oxy)phenyl)pyridin-2-yl)carbamoyl)cyclopropane-1-carboxylate], for which the pIC50 was 7.27 at IKKε and 7.32 against TBK1.
For `N#Cc1cc(-c2cc(NC(=O)C3CC3)ncn2)ccc1O[C@@H]1CCN(C(=O)CO)C[C@H]1F` [Example 111, N-(6-(3-cyano-4-(((3R,4R)-3-fluoro-1-(2-hydroxyacetyl)piperidin-4-yl)oxy)phenyl)pyrimidin-4-yl)cyclopropanecarboxamide], in that order: 6.60 and 6.98.
`N#Cc1cc(-c2cc(NC(=O)C3CC3)ncn2)ccc1C(=O)NCC(F)(F)F` [Example 54, 2-cyano-4-(6-(cyclopropanecarboxamido)pyrimidin-4-yl)-N-(2,2,2-trifluoroethyl)benzamide]: the pIC50 on IKKε is under 6.00; at TBK1 it was 6.05.
Consider `N#Cc1cc(-c2ccnc(NC(=O)[C@@H]3CC3C(=O)O)c2)ccc1O[C@H]1CCN(C(=O)CO)C[C@H]1F` (stereo in doubt) [Example 84, (1,2-trans)-2-((4-(3-cyano-4-(((3R,4S)-3-fluoro-1-(2-hydroxyacetyl)piperidin-4-yl)oxy)phenyl)pyridin-2-yl)carbamoyl)cyclopropane-1-carboxylic acid], for which the pIC50 at IKKε was 6.87; on TBK1 it was 6.48.
`N#Cc1cc(-c2ccnc(NC(=O)C3CC3)c2)ccc1N1CC[C@H](O)C1` [Example 16, (S)—N-(4-(3-cyano-4-(3-hydroxypyrrolidin-1-yl)phenyl)pyridin-2-yl)cyclopropanecarboxamide]: the results for the pIC50 at IKKε and at TBK1 were 6.45 and 7.28, respectively.
As for `Cn1ccnc1[C@@H]1C[C@H]1C(=O)Nc1cc(-c2ccc(O[C@H]3CCN(C(=O)CO)CC3(F)F)c(C#N)c2)ncn1` [Example 114, (1R,2R)—N-(6-(3-cyano-4-(((S)-3,3-difluoro-1-(2-hydroxyacetyl)piperidin-4-yl)oxy)phenyl)pyrimidin-4-yl)-2-(1-methyl-1H-imidazol-2-yl)cyclopropane-1-carboxamide], the negative logarithm of the IC50 (pIC50) at IKKε was 7.44; at TBK1 it was 6.74.
For the compound `N#Cc1cc(-c2ccnc(NC(=O)C3CCC3)c2)ccc1OC1CCOCC1` [Example 3, N-(4-(3-cyano-4-((tetrahydro-2H-pyran-4-yl)oxy)phenyl)pyridin-2-yl)cyclobutanecarboxamide], the pIC50 on IKKε was 6.55; on TBK1, 6.48.
